Like-named read-outs stand apart in the source and are kept apart here.
Columns and labels:
[1] = test system: Lin− CD34+CB HSPCs; assay: High throughput screen of CYP family inhibitors for in vitro HSPC expansion
Experimental: FIG. 16: Primary screen for inhibitors of Cytochrome […] oxidases and promotion of in vitro HSPC expansion by primitive marker expression. 1000 flow sorted Lin− CD34+CB HSPCs were plated per well of a 96-well plate and test compounds were added at three doses (0.1 uM, 1.0 uM, 10 uM) in triplicate. Cell cultures were refreshed with medium every 3 days and at day 10 cells were counted and assessed for CD34 marker expression. […] Columns marked by “x” have a >2-fold increase compared to DMSO. Columns marked by “o” show at least a 1.5-fold increase compared to DMSO control. […] Data shown as mean+/−SEM from n=3 cultures.
FIG. 17: Primary screen for inhibitors of Cytochrome […] oxidases and promotion of in vitro HSPC expansion by total number CD34 marked cells. 1000 flow sorted Lin− CD34+CB HSPCs were plated per well of a 96-well plate and test compounds were added at three doses (0.1 uM, 1.0 uM, 10 uM) in triplicate. Cell cultures were refreshed with medium every 3 days and at day 10 cells were counted and assessed for CD34 marker expression. […] Columns marked by “x” have a >2-fold increase compared to DMSO. Columns marked by “o” show at least a 1.5-fold increase compared to DMSO control. […] Data shown as mean+/−SEM from n=3 cultures.
A screening approach was undertaken that tested the function of 3 alkaloid, 9 coumarin, and 17 flavonoid based compounds ([…], Table 1). The screening approach used 96-well plates seeded with 1000 FACS-purified CD34+ cells and treatment with 3 concentrations of each compound performed in triplicate culture wells (9 wells total per compound). Cells were cultured for 10 days and resultant growth was measured for cell number and surface marker expression by automated flow cytometer (MACS Quant).

[2] = test system: CYP enzymes; conditions: cited from earlier work
[3] = test system: AHR; assay: AHR ChIP-seq comparison to downregulated gene sets; parameters: species or system human; conditions: ChIP-seq-identified AHR targets; SR1 500 nM, UM171 35 nM gene sets
Description: Percentage of down regulated genes with AHR bound regions was then graphed for each gene set. P-values were generated with Fisher's exact test between gene lists.

[4] = test system: Lin− CD34+ cells; assay: MSI2 OE and control suspension cultures with AHR antagonist SR1; assay type: cell-based, human; conditions: SR1 750 nM vs DMSO, 10 days
Experimental: GFP^+ cells were isolated (20,000 cells per culture) and allowed to proliferate with or without SR1 for an additional 7 days at which point they were counted and immunophenotyped for CD34 and CD133 expression. […] GFP^+ cells were isolated (20,000 cells per culture) and allowed to proliferate with FICZ (200 nM; Santa Cruz Biotechnology) or DMSO (0.1%) for an additional 3 days at which point they were immunophenotyped for CD34 and CD133 expression.

[5] = test system: Lin− CD34+ cells; assay: HSPC expansion with TMS; assay type: cell-based, human; conditions: TMS 10 μM vs 0.1% DMSO, during culture
Experimental: Lin^− CD34^+ cells were cultured for 72 hours (lentiviral treated but non-transduced flow-sorted GFP^− cells) in StemSpan medium containing growth factors IL-6 (20 ng/ml), SCF (100 ng/ml), FLT3-L (100 ng/ml) and TPO (20 ng/ml) before the addition of the CYP1B1 inhibitor TMS (Abcam) at a concentration of 10 μM or mock treatment with 0.1% DMSO. Equal numbers of cells (12,000 per condition) were then allowed to proliferate for 7 days at which point they were counted and immunophenotyped for CD34 and CD133 expression.

[6] = summary statement referring to the Examples

Question: With `COc1ccc(-c2cc(=O)c3c(O)cc(O)cc3o2)cc1` [Acacetin, 5,7-dihydroxy-2-(4-methoxyphenyl)-4H-1-benzopyran-4-one] as the compound, how does the “self-renewal and expansion of hematopoietic stem and progenitor cell cultures” value (shortened to “self-renewal and expansion”) [1, 6] read?
Answer: promote the self-renewal and expansion

Question: Which “self-renewal and expansion” value [1] does the source give for `O=c1cc(-c2ccccc2)oc2cc(O)cc(O)c12` [Chrysin, 5,7-Dihydroxy-2-phenyl-4H-chromen-4-one] here?
Answer: promote the self-renewal and expansion

Question: Which IC50 [2] does the source give for `O=c1c(-c2ccc(O)cc2)coc2cc(O)ccc12` [Daidzein, 7-Hydroxy-3-(4-hydroxyphenyl) chromen-4-one] here?
Answer: 7.9 µM

Question: Which “self-renewal and expansion” value [1, 6] does the source give for `O=C1CC(c2ccc(O)cc2)Oc2cc(O)cc(O)c21` (centres unmarked) [Naringenin, 5,7-Dihydroxy-2-(4-hydroxyphenyl)chroman-4-one] here?
Answer: promote the self-renewal and expansion

Question: What does the source list for `CC(C)n1cnc2c(NCCc3ccc(O)cc3)nc(-c3csc4ccccc34)nc21` [SR1, StemRegenin 1]?
Answer: enrichment of direct transcriptional targets of AHR in downregulated gene set compared to UM171 [3]: 5.6 fold; increase in percentage of CD34+ cells ([4]; MSI2 OE cultures): 4 fold; increase in percentage of CD34+ cells ([4]; control transduced cultures): 8 fold

Question: For `COc1cc(/C=C/c2ccc(OC)cc2OC)cc(OC)c1` [TMS, (E)-2,3′,4,5′-Tetramethoxystilbene], which “increase in frequency of CD34+ cells” value [5] is on record?
Answer: 1.5 fold

Question: And the “increase in total numbers of CD34+ cells” value [5]?
Answer: 2 fold

Question: And the “% CD34+ at day 10 relative to DMSO” value ([1]; 1000 CD34+ cells per well, 0.1, 1.0, 10 uM, 10 days)?
Answer: > 2 fold

Question: And the “self-renewal and expansion” value [1, 6]?
Answer: promote the self-renewal and expansion

From patent US20190209618A1, “METHODS AND COMPOSITIONS FOR EXPANSION OF HEMATOPOIETIC STEM AND/OR PROGENITOR CELLS EMPLOYING A CYTOCHROME P450 1B1 (CYP1B1) INHIBITOR OR A MUSASHI-2 (MSI2) ACTIVATOR” (McMaster University, priority 2016, published 2019)
